Key:
[1] = test system: IMQ-induced skin inflammation in Balb/c mice; assay: Imiquimod (IMQ)-induced skin inflammation model; assay type: in vivo, mouse; details: for ear thickness: IMQ vehicle 0.21 ± 0.03 mm
Method: For IMQ-induced skin inflammation, wild-type (WT) Balb/c female mice, 5–8 weeks of age, were purchased from Charles River Laboratories. All mice were housed in pathogen-free conditions at Bristol Myers Squibb (Cambridge, MA). Aldara cream containing 5% imiquimod (Patterson Veterinary Supply, Inc; Devens, MA) was applied to the ears daily (11–14 mg) for 3 days. Mice were treated twice daily (BID) on days 1–4 per os (PO) with vehicle (0.5% methylcellulose/0.25% Tween80) or RORγt inhibitors at indicated doses immediately prior to Aldara application. Ear thickness was measured using micro-calipers. Tissues were harvested on day 4, 2 hours following the last compound dose. Naïve mice are completely untreated, receiving neither control vehicle for IMQ nor Compound.
For RNA isolation & gene expression, ears are collected on day 4 in RNAlater (Qiagen) and stored at 4°C until processed. Ears were homogenized using Procellys 24 homogenizer & hard tissue homogenizing beads (Bertin Instruments), 2 cycles of 30 seconds @ 6000 rpm in RLT lysis buffer according to manufacturer’s instructions. RNA was isolated using RNAeasy Plus MiniPrep columns (Qiagen) and cDNA generated using SuperScript VILO cDNA Synthesis kit (Invitrogen). Gene expression was quantified using TaqMan Fast Master Mix & and TaqMan FAM-MGB probe sets (Applied Biosystems): Gapdh, Mm99999915_g1, Il17a, Mm00439618_m1, Il17f, Mm00521423_m1, Il22, Mm01226722_g1 & Bclxl, Mm00437783_m1. QPCR reactions were run on QuantStudio 7 instrument. Relative quantification and fold changes were calculated using ddCT values against Gapdh and normalized to control-treated animals. For PDAC xenografts, RNA was isolated from tumor sections using Qiagen RNeasy kit (cat#74106), then cDNA was prepared using 2 μg of RNA and the high capacity RNA to cDNA kit (Applied Biosystems, cat#4387406) as per manufacturer’s instructions. Biomarker expression was determined using Taqman gene expression probes (S1 Table) and Universal master mix (ThermoFisher Scientific cat#4305719) with expression levels normalized to Gapdh.
For cytokine production, ears are removed, split in half using forceps and floated, dermis side-down, in DMEM media (Gibco) and incubated at 37° C for 24 hours. Following incubation, media was removed and cytokine production assessed by Luminex assay (Bio-Rad Laboratories).

[2] = test system: Bclxl expression in the thymus; assay: Bclxl expression in thymus after oral dosing (QPCR); assay type: in vivo, mouse; details: 100 mg/kg PO, C57Bl/6 female mice; S5 Fig
Method: Supplementary file pone.0248034.s009.tif: S5 Fig RORγt inhibitors reduce Bclxl expression in thymus of rodents. C57Bl/6 female mice were dosed PO with 100 mg/kg Compound 1, 2 or 3. Thymic tissues were collected from separate cohorts at 2, 8, 16 and 24 hours post-dose (n = 3 mice/timepoint). RNA was extracted from thymic tissues and Bclxl expression measured by QPCR. […] Time zero (‘0’) used as normalization timepoint and set to 1.0 RQ and mean set at 100% for % inhibition calculation. One-way ANOVA with Bonferroni correction for multiple comparisons used for statistical significance calculations. (TIF) Click here for additional data file.

[3] = test system: MOG35-55-induced EAE in C57BL/6 mice; assay: Experimental autoimmune encephalomyelitis (EAE) model; assay type: in vivo, mouse; details: 3 mg/kg QD
Method: EAE studies were conducted at Hooke Laboratories. WT female C57BL/6 mice (Taconic Labs) 9 weeks of age were inoculated on day 0 with MOG35-55 peptide (Hooke Kit™ MOG35-55/CFA Emulsion PTX) (EK-2110, Hooke Laboratories, Lawrence MA) followed by intraperitoneal (IP) injections of pertussis toxin at 2 and 24 hours. Mice were treated twice daily (BID, starting at day 1) per os (PO) with vehicle (0.5% MC/0.25% Tween80) or RORγt inhibitors at indicated doses. FTY720 (Gilenya) was dosed once daily (QD) at 3 mg/kg starting at day 1. EAE clinical scores were evaluated daily and scored from 0–5 according to Hooke Lab EAE scoring guidelines http://hookelabs.com/services/cro/eae/MouseEAEscoring.html. Mean clinical scores & body weight loss were assessed and statistical significance calculated by Wilcoxon’s non-parametric or 2-tailed Student’s t-test, respectively. All studies performed were approved in accordance with the Institutional Animal Care and Use Committee of Bristol Myers Squibb and complied according to Bristol Myers Squibb guidelines.

[4] = test system: psoriasis patients; parameters: method as in PMID 29936103; details: cited from earlier work
[5] = test system: PDAC PDO model T031P; assay: In vitro organoid growth assay (CellTiter-Glo 3D), T031P; assay type: cell-based, human; details: Homo sapiens, 72 h, treated 3 days post-plating
Method: (§1) Patient derived organoids were established as previously described. Briefly, PDX tumor chunks were minced then enzymatically digested into single cells by using a tumor dissociation Kit (Miltenyi, Cat# 130-095-929). Mouse and human cells were separated through magnetic separation, and isolated tumor cells were cultured on Matrigel-coated dishes. […]
(§2) Organoids were isolated and dissociated as described above. Cell numbers were counted by trypan blue exclusion and 5000 cells per well were plated on the Matrigel coated and pre-warmed 96-well plates. […] 100 μl of CellTiter-Glo® 3D reagent (Promega cat# G9682) was added to each well after desired time points and luminescence signal measured after 30 minutes.
(§3) Supplementary file pone.0248034.s010.tif: S6 Fig Schematic of Patient-derived organoids (PDO) growth & formation assays. […] After the indicated treatment schedule organoid growth or formation was assessed by CTG assay. […]

[6] = test system: PDAC PDO model T020P; assay: In vitro organoid growth assay (CellTiter-Glo 3D), T020P; assay type: cell-based, human; details: Homo sapiens, 72 h; treated 3 days post-plating; T020P
Method: as §1, §2, §3

[7] = test system: PDAC PDO model T031P; assay: In vitro organoid formation assay (CellTiter-Glo 3D); assay type: cell-based; details: Homo sapiens, PDO model not named in the sentence (Fig 8B: T020P and T031P)
Method: Patient derived organoids were established as previously described. Briefly, PDX tumor chunks were minced then enzymatically digested into single cells by using a tumor dissociation Kit (Miltenyi, Cat# 130-095-929). Mouse and human cells were separated through magnetic separation, and isolated tumor cells were cultured on Matrigel-coated dishes. Organoid cultures were maintained by growing on Matrigel in human complete maintenance media: Advanced DMEM/F12 media (Life Technology, Cat# 12634028), 10 mM HEPES (Life Technology, Cat# 15630–080), 1X Glutamax (Life Technology, Cat# 35050–061), 1X Antibiotic-Antimycotic (Life Technology, Cat# 15240–062), 10 mM Nicotinamide (Sigma-Aldrich, Cat# N0636-500G), 250 ng/mL R-Spondin-1 (Peprotech, Cat# 120–38), 100 ng/mL Noggin (Peprotech, Cat# 120-10C), 50 ng/mL EGF (Peprotech, Cat# AF-100-15), 100 ng/mL FGF10 (Peprotech, Cat# 100–26), […] (Sigma-Aldrich, Cat# G9020), 500 nM A83-01 (Sigma, Cat# SML0788), 20 μM Y-27632 (LC Laboratories, Cat# Y-5301), 1X B27 (Life Technology, Cat# 12587010), 10 ng/mL Wnt3a (R&D Systems, Cat# 5036-WN-010), 0.1% Methylcelluose (R&D Systems, Cat# HSC001) and Plasmocin (Invivogen, Cat# Ant-mpp) and were passaged every 10–14 days. Organoids were isolated from Matrigel (Corning, Cat# 08-774-406) in a cell recovery solution (Corning, Cat# CB-40253). Spheroid clusters were then dissociated into a single cell suspension with TrypLE (Gibco, Cat# 12605). […]
as §2, §3

[8] = test system: human and mouse xenograft tumor growth; parameters: method as in PMID 30955884; details: modulation of RORγt activity; cited from earlier work
[9] = test system: plaque psoriasis patients; details: cited from earlier work
[10] = test system: KP/C pancreatic tumors in C57Bl/6 mice; assay: In vivo tumor growth suppression, KP/C mouse model; details: single agent vs vehicle; 28 days of dosing
Method: Pancreatic tumor chunks from KP/C mice [20] on C57Bl/6 background were inoculated subcutaneously in the flank of syngeneic mice. […] Tumor volumes and body weight were measured twice each week.
To test whether inhibition of RORγt can lead to tumor growth inhibition we utilized the Kras^G12D/+/Trp53^null/Pdx1-cre (KP/C) mouse model of pancreatic cancer [20]. C57Bl/6 mice were inoculated in the flank with KP/C tumor chunks and enrolled in the study when the average tumor volume reached 200 mm^3. […] To evaluate target engagement, we examined changes in expression of a subset of potential RORγt target genes in tumor samples.

SMILES: O=C(O)[C@@H]1CCN(c2nn(C(=O)c3c(Cl)cccc3C(F)(F)F)c3cccc(F)c23)C[C@H]1O [Compound 1]
- ear thickness ([1]; day 4, 45 mg/kg PO): 0.17 ± 0.02 mm
- ear thickness ([1]; day 4, 75 mg/kg PO): 0.16 ± 0.008 mm
- Th17-cytokine gene expression (Il17a, Il17f, Il22) in ear skin ([1]; day 4, all dose levels tested (30, 45, 75 mg/kg PO)): reduced Th17-cytokine gene expression at all dose levels tested
- IMQ-induced IL-17A cytokine production in ear tissues ([1]; ear tissue floats cultured 24 hours ex vivo, Luminex): reduced IMQ-induced IL-17A cytokine production
- Bclxl expression in the thymus [2]: modulation of Bclxl expression in the thymus

SMILES: O=C(O)[C@@H]1CCC(c2nn(C(=O)c3c(Cl)cccc3C3CC3)c3cccc(F)c23)=C[C@H]1O [Compound 2]
- Th17-dependent gene expression and inflammation ([1]; oral administration, S4 Fig): inhibition of Th17-dependent gene expression and inflammation
- Bclxl expression in the thymus [2]: modulation of Bclxl expression in the thymus

SMILES: CCCCCCCCc1ccc(CCC(N)(CO)CO)cc1 [FTY720, reference compound]
- disease onset ([3]; vehicle day 12): 20 days
- EAE clinical score (0-5) ([3]; vehicle peak 3.08 ± 0.28): 0.54 ± 0.234

SMILES: CCOc1cc([C@@H](CS(C)(=O)=O)N2C(=O)c3cccc(NC(C)=O)c3C2=O)ccc1OC [Otezla]
- reduction of production of IL-17A, IL-17F, IL-22 and TNFα ([4]; Week 4): 40–50%
- PASI-75 response rate ([4]; Week 16): approximately 30%

SMILES: OC(c1ccc(-c2ccc(CN3CCN(Cc4ccncc4)CC3)cc2)c(F)c1)(C(F)(F)F)C(F)(F)F [SR2211, reference compound]
- IC50 [5]: ~3000 nM
- IC50 [6]: ~3000 nM
- IC50 [7]: ~1000 nM
- human and mouse xenograft tumor growth [8]: sufficient to inhibit

SMILES: CCS(=O)(=O)c1ccc(CNC(=O)c2cnc3c(c2)CN(C[C@H]2CC[C@H](C(F)(F)F)CC2)[C@H]3C(C)C)nc1 [VTP-43742]
- PASI-75 response rate ([9]; Week 4): 25–30%
- reduction in IL-17A and IL-17F levels in plasma [9]: 50–75%

SMILES: N.N.[Cl][Pt][Cl] [cisplatin, reference compound]
- tumor volume [10]: significantly reduced
